Reference: patent US9795692B2, “Ocular detection of amyloid proteins” (SYSTEM OF SYSTEMS ANALYTICS, INC., priority 2011, dated 2017)

What was measured:
Type in all cases: binding
[1] = test system: amyloid protein aggregates in brain tissue of transgenic mice with Alzheimer's Disease (Tg AD); experiment: Staining of murine brain tissue with FITC-labeled probe; conditions: age-matched non-Tg murine brain; dentate gyrus or midbrain
Description: Probes for detecting amyloid protein aggregates in brain tissue of transgenic mice with Alzheimer's Disease (Tg AD) were prepared in accordance with the methods described herein.

[2] = test system: amyloid aggregates in human eyes (optic nerve, ciliary retina, retina, drusen); experiment: Staining of sectioned human donor eyes
Description: Human eyes from donors with and without Alzheimer's Disease were obtained from the Georgia Eye Bank.

[3] = target: T1, non-Congophilic amyloid protein aggregates in human brain tissue (Homo sapiens, UniProt P05067); experiment: Staining of human hippocampal region and cerebral cortex compared with Congo Red
T1 construct: from tissue; host or cells: human post-mortem brain tissue (neocortex, hippocampus, cerebral cortex)
T1 sequence (P05067 672-713 limits assumed): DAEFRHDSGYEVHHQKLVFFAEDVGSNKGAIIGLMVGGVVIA

[4] = patient (3), 11-1755/6, person, Alzheimer's Disease and dementia
[5] = patient (4), 11-1767-8, person, Alzheimer's Disease

PEP-11: WT17-35 with FITC and d-Arginine at C-Terminal (CLVFFAEDVGSNKGAIIGLMC; FITC label, C-terminal D-arginine; /note=“Description of Artificial Sequence Synthetic probe”)
staining of non-Tg control brain tissue [1]: minimally stained | binding to amyloid aggregates in the optic nerve, intensity ([2]; human eye sections, optic nerve, PEP-11 compared with BC750): significantly greater | staining of the retina, intensity and homogeneity ([2]; human eye sections, retina): ubiquitous background staining of retinal tissue | retinal staining: distinguishing Alzheimer's Disease from non-Alzheimer's Disease tissue ([2]; human eye sections, retina, AD vs non-AD eyes): less intensely in non-Alzheimer's Disease eyes as compared to Alzheimer's Disease eyes | binding in optic nerve and ciliary retina ([2]; human eye sections, optic nerve immediately posterior to lamina cribrosa, ciliary retina): bound to amyloid aggregates | manner of optic nerve staining ([2]; optic nerve of Alzheimer's Disease patients): dose gradient manner | ciliary retina background staining [2, 4]: moderate and homogenous | optic nerve staining [2, 4]: moderate | ciliary retina background staining [2, 5]: moderate and homogenous | optic nerve staining [2, 5]: intense | staining of drusen ([2]; patient eyes, generally): appears to stain drusen

Nc1c(/N=N/c2ccc(-c3ccc(/N=N/c4cc(S(=O)(=O)O)c5ccccc5c4N)cc3)cc2)cc(S(=O)(=O)O)c2ccccc12 [Congo Red]
structures stained in the cerebral cortex ([3]; cerebral cortex of patients with Alzheimer's Disease): stained congophilic neuro-fibrillary tangles | staining of morphological structures within the brain parenchyma ([3]; human brain parenchyma): Neither Congo Red nor PEP-11 stained any morphological structure | structures stained in the hippocampal region ([3]; human brain tissue, hippocampal region): stained amyloid plaques at the center of the plaques
